Patent US9717748B2, “Compositions and methods for treating an infection” (CMPD LICENSING, LLC, priority 2015, dated 2017)

Tests used:
[1] = tested on: Klebsiella (Calymmato-bacterium) granulomatis; assay: Expected efficacy of antibiotic agents; conditions: Gram: neg
[2] = tested on: Citrobacter freundii; assay: Expected efficacy of antibiotic agents; conditions: Gram: neg
[3] = tested on: Corynebacterium jeikeium; assay: Expected efficacy of antibiotic agents; conditions: Gram: pos
[4] = tested on: Acinetobacter calcoaceticus; assay: Expected efficacy of antibiotic agents; conditions: Gram: neg
[5] = tested on: Shigella flexneri; assay: Expected efficacy of antibiotic agents; conditions: Gram: neg
[6] = tested on: Haemophilus ducreyi; assay: Expected efficacy of antibiotic agents; conditions: Gram: neg
[7] = tested on: Vibrio cholerae; assay: Expected efficacy of antibiotic agents; conditions: Gram: neg
[8] = tested on: Shigella dysenteriae; assay: Expected efficacy of antibiotic agents; conditions: Gram: neg
[9] = tested on: Proteus vulgaris; assay: Expected efficacy of antibiotic agents; conditions: Gram: neg
[10] = tested on: Bordetella pertussis; assay: Expected efficacy of antibiotic agents; conditions: Gram: neg
[11] = tested on: Pseudomonas aeruginosa; assay: Expected efficacy of antibiotic agents; conditions: Gram: neg
[12] = tested on: Enterobacter sakazakii; assay: Expected efficacy of antibiotic agents; conditions: Gram: neg
[13] = tested on: Neisseria meningitidis; assay: Expected efficacy of antibiotic agents; conditions: Gram: neg
[14] = tested on: Morganella morganii; assay: Expected efficacy of antibiotic agents; conditions: Gram: neg
[15] = tested on: Campylobacter jejuni; assay: Expected efficacy of antibiotic agents; conditions: Gram: neg
[16] = tested on: Francisella tularensis; conditions: Gram: neg
[17] = tested on: Proteus mirabilis; assay: Expected efficacy of antibiotic agents; conditions: Gram: neg
[18] = tested on: Salmonella typhi; assay: Expected efficacy of antibiotic agents; conditions: Gram: neg
[19] = tested on: Klebsiella pneumoniae; assay: Expected efficacy of antibiotic agents; conditions: Gram: neg
[20] = tested on: Brucella species; conditions: Gram: neg
[21] = tested on: Acinetobacter lwoffii; assay: Expected efficacy of antibiotic agents; conditions: Gram: neg
[22] = tested on: Serratia marcescens; assay: Expected efficacy of antibiotic agents; conditions: Gram: neg
[23] = tested on: Legionella pneumophila; conditions: Gram: neg
[24] = tested on: Escherichia coli; assay: Expected efficacy of antibiotic agents; conditions: Gram: neg
[25] = tested on: Haemophilus influenzae; assay: Expected efficacy of antibiotic agents; conditions: Gram: neg
[26] = tested on: Shigella boydii; assay: Expected efficacy of antibiotic agents; conditions: Gram: neg
[27] = tested on: Moraxella catarrhalis; assay: Expected efficacy of antibiotic agents; conditions: Gram: neg
[28] = tested on: Rickettsiae; conditions: Gram: neg
[29] = tested on: Pseudomonas fluorescens; assay: Expected efficacy of antibiotic agents; conditions: Gram: neg
[30] = tested on: Neisseria gonorrhoeae; assay: Expected efficacy of antibiotic agents; conditions: Gram: neg
[31] = tested on: Enterobacter aerogenes; assay: Expected efficacy of antibiotic agents; conditions: Gram: neg
[32] = tested on: Corynebacterium urealyticum; assay: Expected efficacy of antibiotic agents; conditions: Gram: pos
[33] = tested on: Clostridium perfringens; conditions: Gram: anaer
[34] = tested on: Bartonella bacilliformis; assay: Expected efficacy of antibiotic agents; conditions: Gram: neg
[35] = tested on: Citrobacter diversus; assay: Expected efficacy of antibiotic agents; conditions: Gram: neg
[36] = tested on: Shigella sonnei; assay: Expected efficacy of antibiotic agents; conditions: Gram: neg
[37] = tested on: Yersinia pestis; conditions: Gram: neg
[38] = tested on: Providencia stuartii; assay: Expected efficacy of antibiotic agents; conditions: Gram: neg
[39] = tested on: Acinetobacter baumannii; assay: Expected efficacy of antibiotic agents; conditions: Gram: neg
[40] = tested on: Providencia rettgeri; assay: Expected efficacy of antibiotic agents; conditions: Gram: neg
[41] = tested on: Enterobacter cloacae; assay: Expected efficacy of antibiotic agents; conditions: Gram: neg
[42] = tested on: Klebsiella oxytoca; assay: Expected efficacy of antibiotic agents; conditions: Gram: neg

C/C(=C\C(=O)OCCCCCCCCC(=O)O)C[C@@H]1OC[C@H](C[C@@H]2O[C@H]2[C@@H](C)[C@H](C)O)[C@@H](O)[C@H]1O [Bactroban]
no: Expected efficacy against Klebsiella (Calymmato-bacterium) granulomatis [1] | Expected efficacy against Citrobacter freundii [2] | Expected efficacy against Corynebacterium jeikeium [3] | Expected efficacy against Acinetobacter calcoaceticus [4] | Expected efficacy against Shigella flexneri [5] | Expected efficacy against Haemophilus ducreyi [6] | Expected efficacy against Vibrio cholerae [7] | Expected efficacy against Shigella dysenteriae [8] | Expected efficacy against Proteus vulgaris [9] | Expected efficacy against Bordetella pertussis [10] | Expected efficacy against Pseudomonas aeruginosa [11] | Expected efficacy against Enterobacter sakazakii [12] | Expected efficacy against Neisseria meningitidis [13] | Expected efficacy against Morganella morganii [14] | Expected efficacy against Campylobacter jejuni [15] | Expected efficacy against Francisella tularensis [16] | Expected efficacy against Proteus mirabilis [17] | Expected efficacy against Salmonella typhi [18] | Expected efficacy against Klebsiella pneumoniae [19] | Expected efficacy against Brucella species [20] | Expected efficacy against Acinetobacter lwoffii [21] | Expected efficacy against Serratia marcescens [22] | Expected efficacy against Legionella pneumophila [23] | Expected efficacy against Escherichia coli [24] | Expected efficacy against Haemophilus influenzae [25] | Expected efficacy against Shigella boydii [26] | Expected efficacy against Moraxella catarrhalis [27] | Expected efficacy against Rickettsiae [28] | Expected efficacy against Pseudomonas fluorescens [29] | Expected efficacy against Neisseria gonorrhoeae [30] | Expected efficacy against Enterobacter aerogenes [31] | Expected efficacy against Corynebacterium urealyticum [32] | Expected efficacy against Clostridium perfringens [33] | Expected efficacy against Bartonella bacilliformis [34] | Expected efficacy against Citrobacter diversus [35] | Expected efficacy against Shigella sonnei [36] | Expected efficacy against Yersinia pestis [37] | Expected efficacy against Providencia stuartii [38] | Expected efficacy against Acinetobacter baumannii [39] | Expected efficacy against Providencia rettgeri [40] | Expected efficacy against Enterobacter cloacae [41] | Expected efficacy against Klebsiella oxytoca [42]
